# Assays:
# [1] = molecular target: serotonin transporter (Mus musculus); assay: In vitro inhibition of accumulation of [14C]5-HT (5-HT) in mouse brain slices
# [2] = molecular target: norepinephrine transporter (Mus musculus); assay: In vitro inhibition of accumulation of (-)-[3H]Norepinephrine (NA) in mouse brain slices
SMILES,IC50 [1] [nM],IC50 [2] [µM]
CN(C)C/C=C(/c1ccccc1)c1cccnc1 [cis -Dimethyl-(3-phenyl-3-pyridin-3-yl-allyl)-amine;1.5C2H4O4],3700,27
Cc1ccc(/C(=C/CN(C)C)c2cccnc2)cc1 [cis -Dimethyl-(3-pyridin-3-yl-3-p-tolyl-allyl)-amine;C2H4O4],2400,> 29
CN(C)C/C=C(/c1ccc(C(F)(F)F)cc1)c1cccnc1 [cis -Dimethyl-[3-pyridin-3-yl-3-(4-trifluoromethyl-phenyl)-allyl]-amine;C2H4O4],2000,13
"CNC/C=C(\c1cccnc1)c1ccc(Cl)cc1Cl [cis-[3-(2,4-Dichloro-phenyl)-3-pyridin-3-yl-allyl]-methyl-amine;C2H4O4]",500,2.3
CN(C)C/C=C(\c1cccnc1)c1ccccc1Br [cis-[3-(2-Bromo-phenyl)-3-pyridin-3-yl-allyl]-dimethyl-amine;C2H4O4],4200,2.2
CNC/C=C(\c1cccnc1)c1ccccc1Br [cis-[3-(2-Bromo-phenyl)-3-pyridin-3-yl-allyl]-methyl-amine;C2H4O4],600,0.3
CNC/C=C(\c1cccnc1)c1cccc(Br)c1 [cis-[3-(3-Bromo-phenyl)-3-pyridin-3-yl-allyl]-methyl-amine;C2H4O4],1400,0.9
CN(C)C/C=C(\c1cccnc1)c1cccc(Cl)c1 [cis-[3-(3-Chloro-phenyl)-3-pyridin-3-yl-allyl]-dimethyl-amine;C2H4O4],2600,11
CN(C)C/C=C(\c1cccnc1)c1cccc(F)c1 [cis-[3-(3-Fluoro-phenyl)-3-pyridin-3-yl-allyl]-dimethyl-amine;C2H4O4],1600,2.2
CCNC/C=C(/c1ccc(Br)cc1)c1cccnc1 [cis-[3-(4-Bromo-phenyl)-3-pyridin-3-yl-allyl]-ethyl-amine;C2H4O4],2000,26
CCCNC/C=C(/c1ccc(Br)cc1)c1cccnc1 [cis-[3-(4-Bromo-phenyl)-3-pyridin-3-yl-allyl]-propyl-amine;C2H4O4],24000,> 24
CN(C)C/C=C(/c1ccc(Cl)cc1)c1cccnc1 [cis-[3-(4-Chloro-phenyl)-3-pyridin-3-yl-allyl]-dimethyl-amine;C2H4O4],2100,10
CN(C)C/C=C(/c1ccc(I)cc1)c1cccnc1 [cis-[3-(4-Iodo-phenyl)-3-pyridin-3-yl-allyl]-dimethyl-amine;C2H4O4],1000,> 22
CC(C)Oc1ccc(/C(=C/CN(C)C)c2ccncc2)cc1 [cis-[3-(4-Isopropoxy-phenyl)-3-pyridin-4-yl-allyl]-dimethyl-amine;C2H4O4],3500,34
COc1ccc(/C(=C/CN(C)C)c2cccnc2)cc1 [cis-[3-(4-Methoxy-phenyl)-3-pyridin-3-yl-allyl]-dimethyl-amine;C2H4O4],800,> 28
